The values that follow come from PubChem BioAssay (NCI).

Common to all, as to assay: NCI anticancer screen, dose series, 48 h
In test [1] the test system is HL-60(TB) leukemia.
Test [2] deals with HT29 colon.
Test [3] concerns OVCAR-5 ovarian.
The test system of test [4] is SK-MEL-2 melanoma.
Test [5] deals with SN12C renal.
For test [6], the system named is T-47D breast.
Test [7] has as its system U251 CNS.
The test system of test [8] is UACC-257 melanoma.
Test [9] has as its system BT-549 breast.
Test [10] has as its system NCI-H460 lung.

Each structure is given as a SMILES string.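 Five concentrations, 48 hours, 96-well plates. GI50 = concentration required for 50% inhibition of growth. Definition used: TGI = concentration required for complete inhibition of growth.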

Regarding `C[C@H]1CCC/C=C/[C@@H]2C[C@H](O)C[C@H]2[C@H](O)[C@@H](SC2OC(CO)C(O)C(O)C2O)CC(=O)O1` (some centres undefined), the GI50 in test [1] is over 100 µM; in [2] it was 23 µM; in test [3], 48 µM; in [4], over 100 µM; in test [5] it was over 100 µM; in [6], over 100 µM. Moreover, the figures for the GI50 in [7] and in test [8] were over 100 µM and 44.5 µM, respectively. The TGI in test [1] was over 100 µM; in test [2] it was 58.8 µM; in [3] it was over 100 µM; in test [4], over 100 µM; in test [5], over 100 µM; in test [6] it was over 100 µM. Further, the TGI in [7] and in test [8] was over 100 µM in each case.

Turning to `CCC1CCC2c3c([nH]c4ccccc34)C3C(=O)N(c4ccc(OC)cc4)C(=O)C3C2C1` (centres undefined), the TGI in test [9] is over 100 µM; in test [1], 75 µM; in test [2], over 100 µM; in test [10] it was over 100 µM; in test [5] it was over 100 µM; in test [6], 55.8 µM. Besides, the figures for the TGI in [7] and in test [8] were 36.2 µM and over 100 µM, respectively.

On to `COc1cc(CC2CC(c3ccc4c(c3)OCO4)OC2=O)cc(OC)c1OC` (centres undefined), for which the TGI in test [1], in test [2], in [10], in test [3], in test [5] and in test [6] was over 100 µM throughout. Further, the TGI in test [7] and in test [8] was over 100 µM in each case.

Consider `O=C1NC(O)CCN1C1CC(O)C(CO)O1` (centres undefined), for which the TGI in test [9], in [1], in test [10], in [3], in test [4] and in [5] was over 100 µM in each case. The TGI in test [6], in [7] and in test [8] was over 100 µM each time.

Take `Cc1nc2sc(C(=O)Nc3cccc(Cl)c3C)c(N)c2cc1C(C)O` (centres undefined): the GI50 was 0.475 µM in [9]; 0.092 µM in test [1]; 0.112 µM in test [2]; 0.237 µM in test [10]; 0.7 µM in test [3]; 0.916 µM in test [5]. Moreover, the figures for the GI50 in [6], in test [7] and in [8] were 0.443 µM, 0.223 µM and 20.2 µM, respectively. Further, the TGI is over 32.3 µM in test [9]; 13.8 µM in test [2]; over 37.2 µM in test [10]; over 74.8 µM in test [3]; over 47.4 µM in test [5]; over 100 µM in test [6]. The TGI is over 39.2 µM in test [7] and over 51.6 µM in test [8].

On to `O=C1C(=Cc2ccccc2[N+](=O)[O-])N=C(c2ccccc2)N1n1c(-c2ccccc2)nc2ccccc2c1=O`, for which the TGI in test [9] is over 100 µM; in test [2], over 100 µM; in [10], 99.1 µM; in test [3], over 100 µM; in [4], 88.2 µM; in test [5], 87.3 µM. Also, the TGI in test [6] was 62.6 µM; in [7], over 100 µM; in test [8], 90.7 µM.

As to `CCN(CC)CCOc1nc2cc(OC)c(OC)cc2c2c1-c1ccc(OC)cc1C2=O`, the GI50 was 15.7 µM in test [9]; 13.4 µM in test [1]; 1.67 µM in [2]; 1.22 µM in [10]; 21.2 µM in test [3]; 5.29 µM in test [5]. Also, the values for the GI50 in test [6], in [7] and in [8] were 18.4 µM, 2.42 µM and 19.8 µM, respectively. Moreover, the TGI in test [9] was 29.5 µM; in test [1], 34.6 µM; in test [2], 3.11 µM; in test [10] it was 2.72 µM; in test [3] it was 36.4 µM; in test [5], 21.1 µM. In addition, the figures for the TGI in [6], in test [7] and in test [8] were 38.2 µM, 18.7 µM and 34.3 µM, respectively.

Regarding `N=C1C(c2nc(-c3ccc(Br)cc3)cs2)=C(O)CN1CC1CCCO1` (centres undefined), the GI50 in test [9], in test [1], in test [2], in [3], in test [4] and in test [5] was over 100 µM each time. Moreover, the GI50 in test [6], in test [7] and in test [8] was over 100 µM throughout. For the same compound, the TGI in test [9], in test [1], in [2], in test [3], in [4] and in test [5] was over 100 µM throughout. The TGI in test [6], in [7] and in [8] was over 100 µM in each case.

With `CCC1OC(/C(C)=C/C(C)/C=C/C2C(C)C2/C=C/C2OC(CC(=O)O)CC(O)C2O)CC=C1C` (centres undefined), the GI50 in test [9], in [2], in test [10], in test [3], in [4] and in test [5] was over 50 µM in each case. The GI50 in [6], in [7] and in test [8] was over 50 µM each time. Moreover, the TGI in test [9], in test [2], in [10], in test [3], in test [4] and in test [5] was over 50 µM in each case. Further, the TGI in [6], in [7] and in test [8] was over 50 µM throughout.

Consider `CC1=NN(C(=O)c2cc(Cl)cc([N+](=O)[O-])c2)C(=O)C1N=Nc1ccccc1C(=O)O` (centres undefined), for which the TGI in test [1], in test [2], in test [10], in test [3], in test [4] and in [5] was over 100 µM throughout. In addition, the TGI in test [7] and in test [8] was over 100 µM throughout.

Regarding `C/C=C/C(=O)[O-].N.N.N.N.N.[Co+3].[O-][Cl+3]([O-])([O-])[O-]`, the GI50 in [1], in test [2], in test [10], in test [3], in [4] and in [5] was over 100 µM in each case. For the same compound, the GI50 in test [7] and in [8] was over 100 µM in each case. For the same compound, the TGI in test [1], in test [2], in [10], in test [3], in test [4] and in test [5] was over 100 µM in each case. Moreover, the TGI in test [7] and in test [8] was over 100 µM in each case.

For `CC1(C)CC(=O)C(=CN2C(=O)CNC2=S)C(=O)C1`, the TGI in test [9], in test [1], in test [10], in [3], in [4] and in test [5] was over 100 µM throughout. For the same compound, the TGI in test [7] and in [8] was over 100 µM throughout.

As to `Cc1ccc([N+](=O)[O-])cc1NC(=O)C(=O)C1CCC2=C(Sc3ccccc3N2)C1=O` (centres undefined), the TGI in test [9], in [1], in test [2], in test [10], in test [3] and in [4] was over 100 µM throughout. Further, the TGI in test [5], in [7] and in test [8] was over 100 µM throughout.

As for `O=C(O)c1oc2cccc3c2c1CCC3`, the TGI in test [1], in test [2], in test [10], in test [3], in [4] and in test [5] was over 100 µM each time. In addition, the TGI in test [7] and in test [8] was over 100 µM in each case.

`O=C1C2=C(c3ccccc31)C(c1ccc(Cl)cc1)NC(=S)N2` (centres undefined): the TGI in [1] is 37.8 µM; in [2], 90.7 µM; in test [10], over 100 µM; in [3], over 100 µM; in test [4], 58.7 µM; in test [5], 40.3 µM. Moreover, the results for the TGI in test [7] and in test [8] were 33.6 µM and over 100 µM, respectively.

For the compound `C=Cc1cnc([N+](=O)[O-])n1C`, the TGI in test [9], in test [1], in test [2], in [10], in test [3] and in [5] was over 100 µM each time. Besides, the TGI in test [6], in test [7] and in test [8] was over 100 µM each time.

As to `O=C(/C=C/c1ccccc1)CCc1c(O)c2ccccc2oc1=O`, the TGI in [9], in [2], in test [10], in [3], in [4] and in [5] was over 100 µM in each case. Besides, the TGI in [6], in test [7] and in test [8] was over 100 µM each time.

For `COc1ccc(N2C(=O)C(N3C(=O)C=CC3=O)C2C=O)cc1` (centres undefined), the TGI in test [1], in test [2], in [10], in test [3], in test [4] and in test [5] was over 100 µM in each case. Further, the TGI in test [7] and in test [8] was over 100 µM throughout.
